Measurements reported in patent US20210346383A1, “COMPOUNDS, COMPOSITIONS AND METHODS FOR TREATING OR PREVENTING HER-DRIVEN CANCERS” (Rain Therapeutics Inc., priority 2018, published 2021).
Where two headings read alike, the source gives them in different places. One block for each molecule: values may come before it.

Experiments:
[1] = molecular target: Ba/F3 cells expressing HER2 A775_G776insYVMA (Homo sapiens, UniProt P04626, DUP772-775, cells depend on it); test: Ba/F3 growth inhibitory assay, HER2 exon 20 mutations; format: cell-based, murine; details: read-out: IC50, growth inhibition
Method: (§1) The murine pro-B cell line Ba/F3 (RCB0805) was obtained from RIKEN Bio Resource Center (Tsukuba, Japan). […] Several Ba/F3 lines which were established in the previous study were also used in this study.
(§2) Briefly, 2000 cells were seeded in each well of 96-well plates. Twenty-four hours later, DMSO or a TKI at indicated drug concentration were added, and the cells were cultured for additional 72 hours. A colorimetric assay was used to estimate the growth inhibition of each drug using the Cell Counting Kit-8 reagent (Dojindo Laboratories, Kumamoto, Japan). Each experiment was performed in triplicate.
(§3) HER2 A775_G776insYVMA, G776delinsVC, P780_Y781insGSP, YVMA+C805S (YVMACS) and VC+C805S (VCCS) mutations were introduced into Ba/F3 cells using retroviral vector.

[2] = molecular target: Ba/F3 cells expressing HER2 G776delinsVC (Homo sapiens, UniProt P04626, DELINS776-776VC, cells depend on it); test: as above; format: cell-based, murine; details: read-out: IC50, growth inhibition
Method: as §1, §2, §3

[3] = molecular target: Ba/F3 cells expressing HER2 P780_Y781insGSP (Homo sapiens, UniProt P04626, DUP778-780, cells depend on it); test: as above; format: cell-based, murine; details: read-out: IC50, growth inhibition
Method: as §1, §2, §3

[4] = molecular target: Ba/F3 cells expressing HER2 YVMA + C805S (YVMACS) (Homo sapiens, UniProt P04626, DUP772-775/C805S, cells depend on it); test: as above; format: cell-based, murine; details: read-out: IC50, growth inhibition
Method: as §1, §2, §3

[5] = molecular target: Ba/F3 cells expressing HER2 VC + C805S (VCCS) (Homo sapiens, UniProt P04626, DELINS776-776VC/C805S, cells depend on it); test: as above; format: cell-based, murine; details: read-out: IC50, growth inhibition
Method: as §1, §2, §3

[6] = system: H-2170 (ERBB2 amplification); test: cells; format: cell-based; details: Homo sapiens
[7] = system: CALU-3 (ERBB2 amplification); test: cells; format: cell-based; details: Homo sapiens
[8] = system: H-1781 (ERBB2 p.G776Ins V_G/C); test: cells; format: cell-based
[9] = system: CUTO-14 (EGFR A767_V769dupASV); test: cells; details: CUTO14, read-out: Cellular Anti-Proliferative Assay IC50
[10] = system: CUTO-17 (EGFR N771_H773dupNPH); test: cells; details: CUTO17, read-out: Cellular Anti-Proliferative Assay IC50
[11] = system: CUTO-18 (EGFR S768_D770dupSVD); test: cells; details: read-out: Cellular Anti-Proliferative Assay IC50
[12] = system: PC9 brain metastasis model; details: cited from earlier work
[13] = molecular target: Ba/F3 cells expressing EGFR A763insFQEA (Homo sapiens, UniProt P00533, INS763FQEA, cells depend on it); test: Ba/F3 cell growth inhibition assay (Cell Counting Kit-8); format: cell-based, murine; details: 72 hours, read-out: IC50, growth inhibition
[14] = molecular target: Ba/F3 cells expressing EGFR V769insASV (Homo sapiens, UniProt P00533, DUP767-769, cells depend on it); test: as above; format: cell-based, murine; details: 72 hours, read-out: IC50, growth inhibition
[15] = molecular target: Ba/F3 cells expressing EGFR D770insSVD (Homo sapiens, UniProt P00533, DUP768-770, cells depend on it); test: as above; format: cell-based, murine; details: 72 hours, read-out: IC50, growth inhibition
[16] = molecular target: Ba/F3 cells expressing EGFR H773insNPH (Homo sapiens, UniProt P00533, DUP771-773, cells depend on it); test: as above; format: cell-based, murine; details: 72 hours, read-out: IC50, growth inhibition
[17] = molecular target: Ba/F3 cells expressing EGFR H773insH (Homo sapiens, UniProt P00533, DUP773-773, cells depend on it); test: as above; format: cell-based, murine; details: 72 hours, read-out: IC50, growth inhibition
[18] = molecular target: Ba/F3 cells expressing EGFR Del 19 (Homo sapiens, UniProt P00533, DEL746-750, cells depend on it); test: as above; format: cell-based, murine; details: Ba/F3 EGFR Del 19; 72 hours; read-out: IC50, growth inhibition
[19] = molecular target: Ba/F3 cells expressing EGFR Del 19 + C797S (Homo sapiens, UniProt P00533, DEL746-750/C797S, cells depend on it); test: as above; format: cell-based, murine; details: Ba/F3 EGFR Del 19 + C797S; 72 hours; read-out: IC50, growth inhibition
[20] = molecular target: Ba/F3 cells expressing EGFR Del 19 + T790M + C797S (Homo sapiens, UniProt P00533, DEL746-750/T790M/C797S, cells depend on it); test: as above; format: cell-based, murine; details: Ba/F3 EGFR Del 19 + T790M + C797S; 72 hours; read-out: IC50, growth inhibition
[21] = molecular target: Ba/F3 cells expressing EGFR L858R (Homo sapiens, UniProt P00533, L858R, cells depend on it); test: as above; format: cell-based, murine; details: 72 hours, read-out: IC50, growth inhibition
[22] = molecular target: Ba/F3 cells expressing EGFR L858R + C797S (Homo sapiens, UniProt P00533, C797S/L858R, cells depend on it); test: as above; format: cell-based, murine; details: 72 hours, read-out: IC50, growth inhibition
[23] = molecular target: Ba/F3 cells expressing EGFR L858R + T790M + C797S (Homo sapiens, UniProt P00533, T790M/C797S/L858R, cells depend on it); test: as above; format: cell-based, murine; details: 72 hours, read-out: IC50, growth inhibition
[24] = system: H1975-luc human NSCLC cells, intracranial; details: cited from earlier work
[25] = 10 mg/kg and 25 mg/kg once daily, 49-day treatment

Ba/F3 cells expressing HER2 A775_G776insYVMA, sequence (P04626 with tags, fused parts or gaps DUP772-775): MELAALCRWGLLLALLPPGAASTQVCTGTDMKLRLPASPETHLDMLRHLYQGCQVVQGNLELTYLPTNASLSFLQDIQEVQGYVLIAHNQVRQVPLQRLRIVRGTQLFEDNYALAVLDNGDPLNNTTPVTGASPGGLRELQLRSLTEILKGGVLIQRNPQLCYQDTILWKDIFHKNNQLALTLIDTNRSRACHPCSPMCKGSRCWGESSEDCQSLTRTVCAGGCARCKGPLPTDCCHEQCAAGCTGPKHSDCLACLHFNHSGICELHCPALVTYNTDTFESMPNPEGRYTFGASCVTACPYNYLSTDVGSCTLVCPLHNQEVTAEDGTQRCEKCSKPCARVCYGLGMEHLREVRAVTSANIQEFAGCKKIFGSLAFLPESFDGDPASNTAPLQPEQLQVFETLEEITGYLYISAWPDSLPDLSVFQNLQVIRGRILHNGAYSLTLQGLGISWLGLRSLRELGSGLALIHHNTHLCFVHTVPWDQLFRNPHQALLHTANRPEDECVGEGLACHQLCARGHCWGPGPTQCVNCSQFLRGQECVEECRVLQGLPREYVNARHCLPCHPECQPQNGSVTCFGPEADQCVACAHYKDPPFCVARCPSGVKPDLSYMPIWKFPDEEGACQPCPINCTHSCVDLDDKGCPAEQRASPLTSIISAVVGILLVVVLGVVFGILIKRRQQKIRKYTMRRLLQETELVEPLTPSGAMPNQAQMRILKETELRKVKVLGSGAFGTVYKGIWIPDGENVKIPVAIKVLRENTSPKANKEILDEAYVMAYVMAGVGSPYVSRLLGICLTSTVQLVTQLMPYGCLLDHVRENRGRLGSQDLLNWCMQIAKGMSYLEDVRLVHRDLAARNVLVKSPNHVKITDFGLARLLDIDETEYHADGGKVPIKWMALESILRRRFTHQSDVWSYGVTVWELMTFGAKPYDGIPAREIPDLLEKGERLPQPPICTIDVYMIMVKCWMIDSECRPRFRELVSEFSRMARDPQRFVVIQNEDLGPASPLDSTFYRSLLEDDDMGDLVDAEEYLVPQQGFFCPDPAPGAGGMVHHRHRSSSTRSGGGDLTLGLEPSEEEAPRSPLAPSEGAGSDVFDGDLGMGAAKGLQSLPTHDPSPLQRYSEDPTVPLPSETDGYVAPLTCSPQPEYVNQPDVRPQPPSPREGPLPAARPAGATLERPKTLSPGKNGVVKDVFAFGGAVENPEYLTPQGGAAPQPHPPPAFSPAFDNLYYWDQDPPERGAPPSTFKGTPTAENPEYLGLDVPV
Ba/F3 cells expressing HER2 P780_Y781insGSP, sequence (P04626 with tags, fused parts or gaps DUP778-780): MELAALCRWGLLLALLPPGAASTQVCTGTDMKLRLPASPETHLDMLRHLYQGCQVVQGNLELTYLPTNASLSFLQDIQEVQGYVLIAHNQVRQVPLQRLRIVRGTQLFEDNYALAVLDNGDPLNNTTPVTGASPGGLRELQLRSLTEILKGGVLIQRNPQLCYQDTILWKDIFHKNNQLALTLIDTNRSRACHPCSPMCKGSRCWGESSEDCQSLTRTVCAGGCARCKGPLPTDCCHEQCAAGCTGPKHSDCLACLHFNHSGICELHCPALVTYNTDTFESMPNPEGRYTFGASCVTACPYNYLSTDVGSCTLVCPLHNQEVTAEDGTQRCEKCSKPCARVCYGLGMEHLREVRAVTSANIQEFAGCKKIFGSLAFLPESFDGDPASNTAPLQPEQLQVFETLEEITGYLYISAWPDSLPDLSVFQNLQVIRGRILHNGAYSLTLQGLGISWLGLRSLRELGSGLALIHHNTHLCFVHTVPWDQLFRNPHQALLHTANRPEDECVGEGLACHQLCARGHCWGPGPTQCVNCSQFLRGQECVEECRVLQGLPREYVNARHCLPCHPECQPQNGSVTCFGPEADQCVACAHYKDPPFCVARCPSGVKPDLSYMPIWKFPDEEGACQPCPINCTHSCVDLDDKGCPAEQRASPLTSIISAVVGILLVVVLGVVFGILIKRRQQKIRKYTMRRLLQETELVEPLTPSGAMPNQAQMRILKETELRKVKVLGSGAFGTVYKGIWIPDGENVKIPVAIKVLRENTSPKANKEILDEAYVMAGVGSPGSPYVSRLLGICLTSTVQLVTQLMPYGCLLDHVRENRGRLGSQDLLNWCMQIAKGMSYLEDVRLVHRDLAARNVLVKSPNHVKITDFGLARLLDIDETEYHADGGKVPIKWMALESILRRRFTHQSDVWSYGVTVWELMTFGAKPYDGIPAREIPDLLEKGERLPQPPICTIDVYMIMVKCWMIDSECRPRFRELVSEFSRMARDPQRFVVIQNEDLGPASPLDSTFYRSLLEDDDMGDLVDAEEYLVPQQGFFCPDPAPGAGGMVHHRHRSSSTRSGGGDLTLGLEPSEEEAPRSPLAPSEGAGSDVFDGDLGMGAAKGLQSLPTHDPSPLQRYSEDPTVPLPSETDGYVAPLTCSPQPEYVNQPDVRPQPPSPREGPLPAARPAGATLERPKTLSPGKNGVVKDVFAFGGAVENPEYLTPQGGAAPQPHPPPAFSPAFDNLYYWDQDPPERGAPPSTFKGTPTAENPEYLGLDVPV
Ba/F3 cells expressing HER2 YVMA + C805S (YVMACS), sequence (P04626 with tags, fused parts or gaps DUP772-775/C805S): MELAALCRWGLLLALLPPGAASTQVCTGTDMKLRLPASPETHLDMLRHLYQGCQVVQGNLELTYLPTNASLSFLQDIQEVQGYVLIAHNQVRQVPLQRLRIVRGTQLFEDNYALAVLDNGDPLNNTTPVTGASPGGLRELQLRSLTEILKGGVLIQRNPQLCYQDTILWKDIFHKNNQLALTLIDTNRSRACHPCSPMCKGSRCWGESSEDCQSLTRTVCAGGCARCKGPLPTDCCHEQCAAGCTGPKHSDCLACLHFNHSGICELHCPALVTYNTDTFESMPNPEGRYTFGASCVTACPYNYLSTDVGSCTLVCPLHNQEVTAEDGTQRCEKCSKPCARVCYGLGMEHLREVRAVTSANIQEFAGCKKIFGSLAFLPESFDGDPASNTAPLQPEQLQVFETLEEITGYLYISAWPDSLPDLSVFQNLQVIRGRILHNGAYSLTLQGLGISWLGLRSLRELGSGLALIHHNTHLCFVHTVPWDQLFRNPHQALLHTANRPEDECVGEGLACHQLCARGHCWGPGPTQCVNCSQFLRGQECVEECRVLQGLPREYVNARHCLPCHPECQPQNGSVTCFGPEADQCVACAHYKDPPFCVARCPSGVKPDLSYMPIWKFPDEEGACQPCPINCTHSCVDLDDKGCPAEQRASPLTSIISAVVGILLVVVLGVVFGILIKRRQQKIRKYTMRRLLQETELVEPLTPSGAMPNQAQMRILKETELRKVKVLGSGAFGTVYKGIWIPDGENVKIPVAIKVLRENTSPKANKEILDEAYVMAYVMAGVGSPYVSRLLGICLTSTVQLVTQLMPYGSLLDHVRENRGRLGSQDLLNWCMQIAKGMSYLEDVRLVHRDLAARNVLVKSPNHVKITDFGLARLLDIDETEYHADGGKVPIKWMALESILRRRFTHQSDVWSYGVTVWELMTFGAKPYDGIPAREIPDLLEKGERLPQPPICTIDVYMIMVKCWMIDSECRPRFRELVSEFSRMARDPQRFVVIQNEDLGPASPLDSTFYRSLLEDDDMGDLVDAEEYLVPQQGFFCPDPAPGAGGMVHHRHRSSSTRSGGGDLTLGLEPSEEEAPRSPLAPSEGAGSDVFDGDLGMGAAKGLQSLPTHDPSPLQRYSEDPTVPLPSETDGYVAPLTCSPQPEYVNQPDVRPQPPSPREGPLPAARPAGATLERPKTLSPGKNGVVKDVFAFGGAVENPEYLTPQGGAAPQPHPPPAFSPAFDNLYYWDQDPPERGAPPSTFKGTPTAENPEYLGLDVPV
Ba/F3 cells expressing HER2 G776delinsVC, sequence (P04626 with tags, fused parts or gaps DELINS776-776VC): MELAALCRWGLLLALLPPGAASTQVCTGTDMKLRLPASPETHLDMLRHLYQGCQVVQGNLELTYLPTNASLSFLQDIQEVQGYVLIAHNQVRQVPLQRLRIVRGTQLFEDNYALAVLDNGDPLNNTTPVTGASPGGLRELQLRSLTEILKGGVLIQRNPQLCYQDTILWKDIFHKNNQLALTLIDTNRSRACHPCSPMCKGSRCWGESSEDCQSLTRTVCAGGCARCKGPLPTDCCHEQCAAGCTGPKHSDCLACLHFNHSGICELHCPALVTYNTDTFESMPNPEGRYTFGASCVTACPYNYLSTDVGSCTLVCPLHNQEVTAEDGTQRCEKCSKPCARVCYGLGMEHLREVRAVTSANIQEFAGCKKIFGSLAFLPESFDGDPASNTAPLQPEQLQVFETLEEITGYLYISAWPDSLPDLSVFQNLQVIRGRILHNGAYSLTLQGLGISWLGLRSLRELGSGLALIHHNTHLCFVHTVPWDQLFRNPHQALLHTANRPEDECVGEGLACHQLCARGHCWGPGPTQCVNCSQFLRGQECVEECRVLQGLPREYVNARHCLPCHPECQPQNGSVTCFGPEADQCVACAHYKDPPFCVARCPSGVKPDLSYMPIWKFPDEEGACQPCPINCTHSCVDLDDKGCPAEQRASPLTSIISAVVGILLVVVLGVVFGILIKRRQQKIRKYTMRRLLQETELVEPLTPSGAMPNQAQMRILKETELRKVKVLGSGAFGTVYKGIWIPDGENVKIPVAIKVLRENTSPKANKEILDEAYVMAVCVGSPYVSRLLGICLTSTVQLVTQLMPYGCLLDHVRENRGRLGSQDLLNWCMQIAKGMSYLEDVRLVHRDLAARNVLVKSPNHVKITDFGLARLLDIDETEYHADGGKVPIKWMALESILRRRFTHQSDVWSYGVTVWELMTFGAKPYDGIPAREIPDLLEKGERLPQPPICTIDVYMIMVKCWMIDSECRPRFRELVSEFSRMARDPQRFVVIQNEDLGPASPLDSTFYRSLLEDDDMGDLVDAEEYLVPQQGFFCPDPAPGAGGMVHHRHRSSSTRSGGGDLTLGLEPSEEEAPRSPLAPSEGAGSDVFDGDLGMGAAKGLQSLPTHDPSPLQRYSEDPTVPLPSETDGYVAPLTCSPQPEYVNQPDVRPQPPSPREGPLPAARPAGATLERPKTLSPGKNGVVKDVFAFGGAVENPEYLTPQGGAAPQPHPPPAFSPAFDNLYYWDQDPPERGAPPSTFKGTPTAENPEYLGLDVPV

GI50 [1]: 8.08 nM | GI50 [2]: 2.05 nM | GI50 [3]: 6.5 nM | GI50 [4]: 545 nM | GI50 [5]: 41.3 nM | IC50 ([7]; Calu-3, read-out: Cellular Anti-Proliferative Assay IC50): 31 nM
SMILES: CN(C)CC=CC(=O)Nc1cc2c(Nc3ccc(F)c(Cl)c3)ncnc2cc1O[C@H]1CCOC1 [Afatinib, N-[4-[(3-Chloro-4-fluorophenyl)amino]-7-[[(3S)-tetrahydro-3-furanyl]oxy]-6-quinazolinyl]-4(dimethylamino)-2-butenamide]
IC50 ([6]; NCI-H2170, read-out: Cellular Anti-Proliferative Assay IC50): 11 nM | IC50 ([8]; NCI-H1781, read-out: Cellular Anti-Proliferative Assay IC50): 66 nM

SMILES: C=CC(=O)Nc1cc(Nc2nccc(-c3cn(C)c4ccccc34)n2)c(OC)cc1N(C)CCN(C)C [Osimertinib, N-(2-{2-dimethylaminoethyl-methylamino}-4-methoxy-5-{[4-(1-methylindol-3-yl)pyrimidin-2-yl]amino}phenyl)prop-2-enamide]
GI50 [1]: 68.3 nM | GI50 [2]: 7.23 nM | GI50 [3]: 88.5 nM | GI50 [4]: > 1000 nM | GI50 [5]: > 1000 nM | IC50 ([6]; NCI-H2170, H-2170, ERBB2 amplification, normoxic conditions, read-out: Cellular Anti-Proliferative Assay IC50): 113 nM | IC50 ([7]; CALU-3, ERBB2 amplification, normoxic conditions, read-out: Cellular Anti-Proliferative Assay IC50): 188 nM | IC50 ([8]; NCI-H1781, H-1781, ERBB2 p.G776Ins V_G/C, normoxic conditions, read-out: Cellular Anti-Proliferative Assay IC50): 406 nM | IC50 [9]: 303 nM | IC50 [10]: 426 ± 3 nM | IC50 [11]: 647 ± 3 nM | tumor regression ([12]; 5 mg/kg QD, first three weeks): caused tumor regression, which was more transient | tumor regression ([12]; 25 mg/kg QD): induced sustained tumor regression until study end at day 60

GI50 [13]: 0.7 nM | GI50 [14]: 28 nM | GI50 [15]: 27.9 nM | GI50 [16]: 2.2 nM | GI50 [17]: 22.8 nM | GI50 [18]: < 0.457 nM | GI50 [19]: 1.6 nM | GI50 [20]: > 1000 nM | GI50 [21]: < 0.457 nM | GI50 [22]: 7.1 nM | GI50 [23]: > 1000 nM | GI50 [1]: 0.64 nM | GI50 [2]: 0.02 nM | GI50 [3]: 1.03 nM | GI50 [4]: 316 nM | GI50 [5]: 27.9 nM
SMILES: C=CC(=O)N1CCC(Oc2cc3c(Nc4ccc(Cl)c(Cl)c4F)ncnc3cc2OC)CC1 [Poziotinib]

SMILES: C=CC(=O)Nc1cc(Nc2nccc(-n3cc(CN(C)C)c(-c4ccccc4)n3)n2)c(OC)cc1N1CCOCC1 [YH25448]
body weight [24, 25]: no obvious loss of the body weight | intracranial tumor growth inhibition vs osimertinib [24, 25]: more effectively inhibited intracranial tumor growth than osimertinib | intracranial tumor regression ([24]; H1975 xenograft model): showed intracranial tumor regression
